Laboratory results taken from patent publication US20250049840A1, “COMPOSITIONS COMPRISING A CHEMOKINE RECEPTOR PATHWAY INHIBITOR” (DIMERIX BIOSCIENCE PTY LTD, priority 2022, published 2025).
Entries after “also recorded” stand apart in the source; their conditions may differ.

Tests used:
monocytes = conditions: Yokochi (2001); Yamada (2004); cited from earlier work
MCP-1 = MCP-1 (Homo sapiens, UniProt P13500); conditions: Yokochi (2001); Yamada (2004); cited from earlier work
[1] = In Use stability study: repagermanium IR capsules reconstituted in water in a medical pot, with or without nasogastric tube (assay, appearance, pH); type: physicochemical; conditions: reconstituted in 15 ml water in a medical pot, up to 3 h (180 minutes)
Experimental: An In Use stability study was performed to determine the reconstitution and dosage information for administration of repagermanium IR capsules via nasogastric feeding tube. The objective of the study was to: • 1. measure the stability of the repagermanium drug product composition once reconstituted in water for administration via a gastric tube, • 2. determine if there is any residual repagermanium remaining in the medicine pot after the first 15 mL solution has been removed, and • 3. identify if additional flushing of the nasogastric tube will be required to deliver the correct dose of repagermanium. There were 6 experiments in total. Each experiment was performed in duplicate (except for micro tests). [table]

Chain of MCP-1 (P13500 24-99, species assumed): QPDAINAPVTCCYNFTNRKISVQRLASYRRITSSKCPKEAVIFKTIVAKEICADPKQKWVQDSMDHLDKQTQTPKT

Structure (SMILES) | inhibition of in vitro chemotactic migration of monocytes by MCP-1 (monocytes) | inhibition of MCP-1 binding (MCP-1) | chemical and microbiological stability after reconstitution [1]
O=C(O)C[CH2][Ge](=[O])[O][Ge](=[O])[CH2]CC(=O)O [Propagermanium, 3-[(2-carboxyethyl-oxogermyl)oxy-oxogermyl] propanoic acid] | specifically inhibit in vitro chemotactic migration of monocytes by MCP-1; also recorded: inhibits in-vitro chemotactic migration of monocytes by MCP-1 | does not inhibit MCP-1 binding | –
O=C(O)C[CH2][Ge](=[O])[O][Ge](=[O])[CH2]CC(=O)O [repagermanium, 3-[(2-carboxyethyl-oxogermyl)oxy-oxogermyl] propanoic acid] | – | – | chemically and microbiologically stable
